Earlier results, collected in patent US10611818B2, “MHC multimers in tuberculosis diagnostics, vaccine and therapeutics” (priority 2007, dated 2020).

System: T2 cells
Settings: CD8 T-cell clones 8, 9, 10, 11 and 12

Sequence: GLQHWVPEL [BA4697-105, irrelevant peptide used to load T2 target cells]
- lysis of T2 cells pulsed with peptide: without killing
